Patent US10494397B2, “Rebaudioside analogs” (PepsiCo, Inc., priority 2016, dated 2019)

System: Tasters
Assay: Sensory evaluation of test material as a sweetener (taster panel, scale of 1 to 10)
Format: in vivo, human
Design: key: not observed or only minimally observed (−); highly observed (+++)
Conditions: for Sweet Intensity: averaged taster scores, scale 1 to 10 with Reb A 400 ppm = 5 and sucrose 6.5% = 10, noseclips, blinded; for Sweet Quality: based upon temporal profile (sweet onset, linger) and attributes such as syrupy, round, clean; for Bitterness: taster comments and scores converted into symbols
Excerpt: Sample preparation protocol for testing material as a sweetener: Tasters wore noseclips and were blinded to the identity of the test material. Tasters sampled 400 ppm Rebaudioside A and 6.5 Brix sucrose prior to the test material. Reb A 400 ppm was assigned a 5 on the scale of 1 to 10 as shown in FIG. 8 and sucrose (6.5%) was assigned a 10 on the same scale. Tasters were asked to rinse their mouths 5 times with water between tasting each sample. Tasters were then given the test article and asked to rank the test article for sweetness on the noted scale. Tasters were also asked to provide comments about bitterness, linger, flavors, and any other perceptions.
Numerical scores from all tasters were averaged and, taken together with comments regarding sweet quality, bitterness and off-tastes, converted into the symbols “−,” “+,” “++,” and “+++” to indicate whether a given characteristic was not observed or only minimally observed (−) or highly observed (+++). For example, a sample having a “−” in both sweet intensity and bitterness should be understood as a sample having minimal or no sweetness and minimal or no bitter flavor. By contrast, a sample having a “+++” in both sweet intensity and bitterness should be understood as a sample having highly observed sweet intensity and bitterness.
Preparation of Reb A in this experiment: Prepare 400 ppm Reb A in water (pH=7): 40 mg of Rebaudioside A was dissolved with stirring in 100 ml of water at room temperature.
Preparation of Sucrose in this experiment: Prepare 6.5% Sucrose in water (pH=7): weight 6.5 gr of Sucrose and dissolve it in 93.5 gr water (total 100 gr)
• Sweet quality was based upon a temporal profile (sweet onset, linger) and attributes such as syrupy, round, clean.

SMILES | Sweet Intensity | Sweet Quality | Bitterness
C=C1C[C@@]23CC[C@H]4[C@@](C)(CCC[C@@]4(C)C(=O)NCC(=O)OC)[C@@H]2CC[C@]1(O[C@@H]1O[C@H](CO)[C@@H](O)[C@H](O[C@@H]2O[C@H](CO)[C@@H](O)[C@H](O)[C@H]2O)[C@H]1O[C@@H]1O[C@H](CO)[C@@H](O)[C@H](O)[C@H]1O)C3 [Compound 5A1, Rebaudioside B—Glycine Methyl ester] | − | − | +++
C=C1C[C@@]23CC[C@H]4[C@@](C)(CCC[C@@]4(C)C(=O)N[C@@H](C)C(=O)OC)[C@@H]2CC[C@]1(O[C@@H]1O[C@H](CO)[C@@H](O)[C@H](O[C@@H]2O[C@H](CO)[C@@H](O)[C@H](O)[C@H]2O)[C@H]1O[C@@H]1O[C@H](CO)[C@@H](O)[C@H](O)[C@H]1O)C3 [Compound 5B1, Rebaudioside B- L-Alanine Methyl ester] |  | − | +++
C=C1C[C@@]23CC[C@H]4[C@@](C)(CCC[C@@]4(C)C(=O)N[C@H](C)C(=O)OC)[C@@H]2CC[C@]1(O[C@@H]1O[C@H](CO)[C@@H](O)[C@H](O[C@@H]2O[C@H](CO)[C@@H](O)[C@H](O)[C@H]2O)[C@H]1O[C@@H]1O[C@H](CO)[C@@H](O)[C@H](O)[C@H]1O)C3 [Compound 5C1, Rebaudioside B- D-Alanine Methyl ester] |  | − | 
C=C1C[C@@]23CC[C@H]4[C@@](C)(CCC[C@@]4(C)C(=O)N[C@@H](C(=O)OC)C(C)C)[C@@H]2CC[C@]1(O[C@@H]1O[C@H](CO)[C@@H](O)[C@H](O[C@@H]2O[C@H](CO)[C@@H](O)[C@H](O)[C@H]2O)[C@H]1O[C@@H]1O[C@H](CO)[C@@H](O)[C@H](O)[C@H]1O)C3 [Compound 5D1, Rebaudioside B- D-Valine Methyl ester] | − | − | +++
C=C1C[C@@]23CC[C@H]4[C@@](C)(CCC[C@@]4(C)C(=O)N[C@@H](C(=O)O)C(C)C)[C@@H]2CC[C@]1(O[C@@H]1O[C@H](CO)[C@@H](O)[C@H](O[C@@H]2O[C@H](CO)[C@@H](O)[C@H](O)[C@H]2O)[C@H]1O[C@@H]1O[C@H](CO)[C@@H](O)[C@H](O)[C@H]1O)C3 [Compound 5D2] | +++ |  | −
C=C1C[C@@]23CC[C@H]4[C@@](C)(CCC[C@@]4(C)C(=O)N[C@H](Cc4ccccc4)C(=O)OC)[C@@H]2CC[C@]1(O[C@@H]1O[C@H](CO)[C@@H](O)[C@H](O[C@@H]2O[C@H](CO)[C@@H](O)[C@H](O)[C@H]2O)[C@H]1O[C@@H]1O[C@H](CO)[C@@H](O)[C@H](O)[C@H]1O)C3 [Compound 5E1, Rebaudioside B- D-Phenylalanine Methyl ester] | − | − | +++
C=C1C[C@@]23CC[C@H]4[C@@](C)(CCC[C@@]4(C)C(=O)N[C@H](Cc4ccccc4)C(=O)O)[C@@H]2CC[C@]1(O[C@@H]1O[C@H](CO)[C@@H](O)[C@H](O[C@@H]2O[C@H](CO)[C@@H](O)[C@H](O)[C@H]2O)[C@H]1O[C@@H]1O[C@H](CO)[C@@H](O)[C@H](O)[C@H]1O)C3 [Compound 5E2] |  |  | −
C=C1C[C@@]23CC[C@H]4[C@@](C)(CCC[C@@]4(C)C(=O)O[C@@H]4O[C@H](CO)[C@@H](O)[C@H](O)[C@@H]4O)[C@@H]2CC[C@]1(O[C@@H]1O[C@H](CO)[C@@H](O)[C@H](O[C@@H]2O[C@H](CO)[C@@H](O)[C@H](O)[C@H]2O)[C@H]1O[C@@H]1O[C@H](CO)[C@@H](O)[C@H](O)[C@H]1O)C3 [Compound 7A, Rebaudioside B Mannoside] | +++ |  | 
